# US20220288046A1, “COMBINATION PRODUCT CONTAINING LIMONOID COMPOUND AND THIAZOLIDINEDIONE COMPOUND” (ZHEJIANG YANGSHENGTANG INSTITUTE OF NATURAL MEDICATION CO., …, priority 2019, published 2022)
# Columns and labels:
# Assay type in all cases: in vivo
# STZ mice [1] = experiment: Blood glucose in mouse type II diabetes model with pancreatic islet damage and obesity (STZ + high-fat diet ICR mice), limonoid/pioglitazone; conditions: single agent 0.5 g/kg per day gavage, two weeks, 1 h after last administration, mean ± SD
# Description: Effects of limonoid compound, pioglitazone or combination thereof on blood glucose in mouse type II diabetes model with pancreatic islet damage and obesity In this example, a mouse model of type II diabetes with pancreatic islet damage and obesity was established by multiple modeling ICR mice with a small dose of streptozotocin (STZ), following with continuous high-fat diets (referring to literature: […] Conditions of experimental feeding: […] The experimental feed was mouse growth-stable feed (GB […]), and the daily feeding and management of the animals were under the responsibility of the animal security department, which provided the animals with sufficient diet and fresh drinking water daily. Experimental grouping: 15 male mice were randomly selected as the normal control group, and the remaining mice were subjected to a high-fat diet (high-fat diet formula: cholesterol 1%, egg yolk powder 10%, lard oil 10%, and basic feed 79%, for establishing an obesity mouse model) for consecutive 4 weeks and intraperitoneal injection of STZ at a dose of 35mg/kg for three consecutive days. […] SPSS 16.0 software was used for statistical analysis. The data were expressed as mean and standard deviation. The data before and after were analyzed by t-test, and P <0.05 was considered statistically significant.
# db/db mice [2] = experiment: Serum leptin (Elisa) in mouse type II diabetes model (db/db mice), limonoid/pioglitazone; conditions: single agent 0.04 g/kg per day gavage, two weeks, mean ± SD
# Description: (§1) Effects of limonoid compound, pioglitazone or combination thereof on blood glucose and leptin in mouse type II diabetes model In the present example, db/db mice (line name BKS.Cg-Dock7m^+/+Lepr^db/Nju) were used to perform hypoglycemic efficacy evaluation test of animals (blood glucose level and leptin). The limonoid compound was selected from obacunone, isoobacunoic acid and obacunone glycoside, and pioglitazone single administration group, obacunone single administration group, isoobacunoic acid single administration group, obacunone glycoside single administered group, and respective combination thereof with pioglitazone administration groups were set. Conditions for experimental feeding: as type II diabetes model mice, 6-week-old SPF-grade db/db mice were purchased from the Nanjing Model Biology Institute, and subjected to experimental feeding after 7 days of preliminary feeding. […] The experimental feed was mouse growth-stable feed (GB […]), and the daily feeding and management of the animals were under the responsibility of the animal security department, which provided the animals with sufficient diet and fresh drinking water daily. […] The data were expressed as mean and standard deviation. The data before and after were analyzed by t-test, and P <0.05 was considered statistically significant.
# db/db mice [3] = experiment: Blood glucose in mouse type II diabetes model (db/db mice), limonoid/pioglitazone; conditions: single agent 0.04 g/kg per day gavage, two weeks, 1 h after last administration, mean ± SD
# Description: as §1
# STZ mice [4] = experiment: Blood glucose in mouse pancreatic islet β-cell injury model (STZ ICR mice), limonoid/pioglitazone; conditions: single agent 0.1 g/kg per day gavage, two weeks, 1 h after last administration, mean ± SD
# Description: Effects of limonoid compound, pioglitazone or combination thereof on blood glucose in mouse pancreatic islet β-cell injury model In this example, a mouse pancreatic islet β-cell injury model was established by modeling ICR mice with streptozotocin (STZ) (Li Nan et al., Protective effect of pine pollen on kidney damage in diabetic nephropathy mice, Science and Technology Review, 2014, 32 (4⁄5): 95-99), and used to complete the evaluation of hypoglycemic effect in animals (this model could simulate pancreatic islet β-cell damage state of type I and type II diabetics). The limonoid compound was selected from the group consisting of […], and […] glycoside, and pioglitazone single administration group, […] single administration group, […] single administration group, […] glycoside singe administration group, and respective combination thereof with pioglitazone administration groups were set. Conditions of experimental feeding: […] The experimental feed was mouse growth-stable feed (GB […]), and the daily feeding and management of the animals were under the responsibility of the animal security department, which provided the animals with sufficient diet and fresh drinking water daily. […] The data were expressed as mean and standard deviation. The data before and after were analyzed by t-test, and P <0.05 was considered statistically significant.
# STZ mice [5] = experiment: Blood glucose in mouse pancreatic islet β-cell injury model (STZ ICR mice), limonoid/rosiglitazone; conditions: single agent 0.02 g/kg per day gavage, two weeks, 1 h after last administration, mean ± SD
# Method: It should be noted that the conditions for raising the mice were as follows: the temperature was 23±1° C., the humidity was 55±10%, the lights were turned on between 7 am and 7 pm (the lights were turned off at other time), and the mice were allowed to freely take in water and feed. The experimental feed was mouse growth-stable feed (GB M2118), and the daily feeding and management of the animals were under the responsibility of the animal security department, which provided the animals with sufficient diet and fresh drinking water daily.
# SPSS 16.0 software was used for statistical analysis. The data were expressed as mean and standard deviation.
# db/db mice [6] = experiment: Blood glucose in mouse type II diabetes model (db/db mice), limonoid/rosiglitazone; conditions: single agent 0.2 g/kg per day gavage, two weeks, 1 h after last administration, mean ± SD
# Description: (§2) Effects of limonoid compound, rosiglitazone or combination thereof on blood glucose and insulin in mouse type II diabetes model
# (§3) In the present embodiment, the limonoid compound was selected from nomilin, deacetylnomilin, nomilin acid, deacetylnomilin acid glycoside, and rosiglitazone single administration group, nomilin single administration group, deacetylnomilin single administration group, nomilin acid single administered group, deacetylnomilin acid glycoside single administration group, and respective combination thereof with rosiglitazone administration groups were set.
# (§4) Conditions for experimental feeding: as type II diabetes model mice, 6-week-old SPF-grade db/db mice were purchased from the Nanjing Model Biology Institute, and subjected to experimental feeding after 7 days of preliminary feeding. […]
# (§5) Two weeks later, the blood glucose values were measured by tail trimming method (Johnson's blood glucose meter) 1 h after the last administration, and serum insulin levels were measured with blood collected from orbital cavity by enzyme-linked immunosorbent assay (Elisa), and the average of each group was obtained. […] The data were expressed as mean and standard deviation.
# db/db mice [7] = experiment: Serum insulin (Elisa) in mouse type II diabetes model (db/db mice), limonoid/rosiglitazone; conditions: single agent 0.2 g/kg per day gavage, two weeks, mean ± SD
# Description: as §2, §3, §4, §5
SMILES,Blood glucose value (STZ mice [1]) [mmol/L],Leptin (db/db mice [2]) [pg/mL],Blood glucose value (db/db mice [3]) [mmol/L],Blood glucose value (STZ mice [4]) [mmol/L],Blood glucose value (STZ mice [5]) [mmol/L],Blood glucose value (db/db mice [6]) [mmol/L],Insulin (db/db mice [7]) [pg/mL]
"CCc1ccc(CCOc2ccc(CC3SC(=O)NC3=O)cc2)nc1 (stereo not shown) [Pioglitazone, pioglitazone]",9.9 ± 2.1,24.55 ± 5.14,11.5 ± 3.0,12.8 ± 3.1,–,–,–
"CN(CCOc1ccc(CC2SC(=O)NC2=O)cc1)c1ccccn1 (stereo not shown) [Rosiglitazone, rosiglitazone]",–,–,–,–,17.9 ± 3.5,10.0 ± 2.5,7.54 ± 1.21
